Experimental data taken from ChEMBL document CHEMBL5244208, “Privileged scaffolds as MAO inhibitors: Retrospect and prospects” (Eur J Med Chem, 2018).
Where “and” joins values, the source holds several entries; their conditions need not be identical. Equal values may be shown once.

target: T1, Amine oxidase [flavin-containing] B (Homo sapiens, UniProt P27338); assay: Inhibition of MAO-B (unknown origin); conditions: not given
T1 sequence (P27338 whole entry): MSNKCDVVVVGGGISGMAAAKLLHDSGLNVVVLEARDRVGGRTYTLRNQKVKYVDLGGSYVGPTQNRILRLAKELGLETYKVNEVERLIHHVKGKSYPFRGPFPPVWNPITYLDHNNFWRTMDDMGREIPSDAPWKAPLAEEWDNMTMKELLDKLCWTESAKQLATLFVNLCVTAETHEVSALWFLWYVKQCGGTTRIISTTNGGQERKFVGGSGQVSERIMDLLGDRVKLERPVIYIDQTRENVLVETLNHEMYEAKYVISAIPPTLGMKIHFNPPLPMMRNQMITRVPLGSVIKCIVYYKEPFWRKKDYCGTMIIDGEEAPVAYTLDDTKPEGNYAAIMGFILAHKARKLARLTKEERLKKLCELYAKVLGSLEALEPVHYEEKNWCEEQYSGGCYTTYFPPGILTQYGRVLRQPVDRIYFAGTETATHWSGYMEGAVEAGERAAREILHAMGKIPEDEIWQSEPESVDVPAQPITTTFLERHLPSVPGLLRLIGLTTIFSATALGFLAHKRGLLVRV

Structure (SMILES) | Ki [µM]
NS(=O)(=O)Cc1noc2ccccc12 [ZONISAMIDE] | 30.8

same assay, conditions: read-out: IC50

Structure (SMILES) | IC50 [µM]
COc1ccc(/C(=C\F)CN)cc1OC | 0.01

same assay, conditions: read-out: pIC50 (converted)

Structure (SMILES) | IC50 [µM]
O=c1oc2ccc(Cl)cc2cc1Cl | 0.01
C/C(=C\COc1ccc2ccc(=O)oc2c1)C1=CC(=O)C(C)(C)O1 [GEIPARVARIN] | 24

target: T2, Amine oxidase [flavin-containing] A (Homo sapiens, UniProt P21397); assay: Irreversible inhibition of human recombinant MAO-A; conditions: not given
T2 sequence (P21397 whole entry): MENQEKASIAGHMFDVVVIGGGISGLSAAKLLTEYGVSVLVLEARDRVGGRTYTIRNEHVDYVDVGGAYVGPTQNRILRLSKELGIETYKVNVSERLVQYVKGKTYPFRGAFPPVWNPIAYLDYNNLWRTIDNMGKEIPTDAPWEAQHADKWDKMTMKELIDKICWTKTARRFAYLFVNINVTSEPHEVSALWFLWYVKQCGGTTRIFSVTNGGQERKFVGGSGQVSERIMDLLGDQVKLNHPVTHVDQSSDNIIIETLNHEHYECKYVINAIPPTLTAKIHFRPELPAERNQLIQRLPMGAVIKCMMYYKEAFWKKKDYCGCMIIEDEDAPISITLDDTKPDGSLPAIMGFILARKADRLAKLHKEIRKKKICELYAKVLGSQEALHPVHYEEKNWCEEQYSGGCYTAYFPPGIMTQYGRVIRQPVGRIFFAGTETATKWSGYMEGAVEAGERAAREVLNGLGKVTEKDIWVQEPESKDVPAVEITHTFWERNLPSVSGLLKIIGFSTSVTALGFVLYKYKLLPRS

Structure (SMILES) | Ki [µM]
C#CCN(C)Cc1cccc(C(=O)NC2CC(C)(C)N([O])C(C)(C)C2)c1 | 268

target: T1, Amine oxidase [flavin-containing] B; assay: Irreversible inhibition of human recombinant MAO-B; conditions: not given

Structure (SMILES) | Ki [µM]
C#CCN(C)Cc1ccc(C(=O)NC2CC(C)(C)N([O])C(C)(C)C2)cc1 | 15

target: T2, Amine oxidase [flavin-containing] A; assay: Inhibition of human recombinant MAO-A; conditions: not given

Structure (SMILES) | IC50 [µM]
CC(=O)Nc1ccc2c(c1)S(=O)(=O)c1ccccc1N2C | 0.01
CC(=O)Nc1ccc2c(c1)C(=O)c1ccccc1C2=O | 0.01
CC(=O)Nc1ccc2c(O)c3ccccc3nc2c1 | 0.01
CCc1ccc2c(c1)S(=O)(=O)c1cc(NC(C)=O)ccc1C2=O | 0.01
CC(=O)Nc1cc2c(cc1NC(C)=O)S(=O)(=O)c1ccccc1C2 | 0.01
CCCc1ccc2c(c1)S(=O)(=O)c1cc(NC(C)=O)ccc1C2=O | 0.01
CC(=O)Nc1ccc2c(c1)S(=O)(=O)c1ccccc1C2=O | 0.01
CC(=O)Nc1ccc2c(c1)S(=O)(=O)c1cc(C)ccc1C2=O | 0.01
CC(=O)Nc1ccc2c(c1)S(=O)(=O)c1ccccc1N2 | 0.01
O=CN(C=O)c1ccc2c(c1)S(=O)(=O)c1ccccc1C2=O | 0.01
CC(=O)Nc1ccc2c(c1)S(=O)(=O)c1ccccc1O2 | 0.01
CC(=O)Nc1ccc2c(c1)C(=O)c1ccccc1S2(=O)=O | 0.01
CC(=O)Nc1cccc2c1C(=O)c1ccccc1C2=O | 0.01
CC(=O)Nc1ccc2c(c1)S(=O)(=O)c1cc(NC(C)=O)ccc1N2C | 0.01

target: T2, Amine oxidase [flavin-containing] A; assay: Inhibition of MAO-A (unknown origin); conditions: not given

Structure (SMILES) | Ki [µM] | IC50 [µM]
C[C@@H]1O[C@@H](Oc2c(-c3ccc(O)c(O)c3)oc3cc(O)cc(O)c3c2=O)[C@H](O)[C@H](O)[C@H]1O [QUERCITRIN] | – | 18

target: T2, Amine oxidase [flavin-containing] A; assay: Inhibition of recombinant human MAO-A using kynuramine as substrate incubated for 20 mins by spectrophotometry analysis; conditions: not given

Structure (SMILES) | Ki [µM]
COC[C@H]1CN(n2cccc2)C(=O)O1 | 0.0049

target: T1, Amine oxidase [flavin-containing] B; assay: Inhibition of human MAO-B; conditions: not given

Structure (SMILES) | IC50 [µM]
OCCn1nnc(-c2ccc(OCc3cccc(Cl)c3)cc2)n1 | 0.002
N#CCCn1nnc(-c2ccc(OCc3cccc(Cl)c3)cc2)n1 | 8
OCCn1nnc(-c2ccc(OCc3ccccc3)cc2)n1 | 0.002
N#CCCn1nnc(-c2ccc(OCc3ccccc3)cc2)n1 | 8
Oc1ccc(/C=C/c2cc(O)cc3c2[C@@H](c2cc(O)cc(O)c2)C(c2ccc(O)cc2)O3)cc1 (stereo not given in full) | 5

target: Acetylcholinesterase (Homo sapiens, UniProt P22303); assay: Inhibition of AChE (unknown origin) using acetylthiocholine chloride as substrate incubated for 5 mins by DTNB reagent based Ellman's method; conditions: not given
Sequence (P22303 whole entry): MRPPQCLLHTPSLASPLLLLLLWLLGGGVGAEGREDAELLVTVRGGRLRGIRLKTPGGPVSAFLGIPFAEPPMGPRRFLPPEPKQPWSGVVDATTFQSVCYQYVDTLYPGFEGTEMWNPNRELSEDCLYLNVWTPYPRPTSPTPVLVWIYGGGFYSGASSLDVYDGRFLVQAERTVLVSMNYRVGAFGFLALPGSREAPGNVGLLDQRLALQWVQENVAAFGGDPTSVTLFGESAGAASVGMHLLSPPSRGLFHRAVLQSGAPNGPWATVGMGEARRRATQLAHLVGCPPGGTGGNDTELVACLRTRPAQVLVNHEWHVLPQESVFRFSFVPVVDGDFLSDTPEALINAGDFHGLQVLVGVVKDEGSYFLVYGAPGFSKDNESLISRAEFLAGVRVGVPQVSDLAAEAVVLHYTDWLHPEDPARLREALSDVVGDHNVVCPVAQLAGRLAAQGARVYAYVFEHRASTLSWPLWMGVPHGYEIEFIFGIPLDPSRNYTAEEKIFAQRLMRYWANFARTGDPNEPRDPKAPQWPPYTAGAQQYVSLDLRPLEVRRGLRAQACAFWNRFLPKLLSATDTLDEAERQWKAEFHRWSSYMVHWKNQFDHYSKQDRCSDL

Structure (SMILES) | IC50 [µM]
Cc1c(C)c2ccc(OCc3cccc(O)c3)cc2oc1=O | 3
Cc1ccccc1COc1ccc2c(C)c(C)c(=O)oc2c1 | 3
Cc1c(C)c2ccc(OCc3cc(F)cc(F)c3)cc2oc1=O | 3
Cc1c(C)c2ccc(OCCc3ccccc3)cc2oc1=O | 3
Cc1c(C)c2ccc(OCc3ccccc3)cc2oc1=O | 3
Cc1c(C)c2ccc(OCc3cccc(N)c3)cc2oc1=O | 3
Cc1c(C)c2ccc(OCc3ccc(F)c(F)c3)cc2oc1=O | 3
Cc1cc(=O)c2cc(Oc3ccccc3)ccc2o1 | 3
O=c1ccoc2ccc(Oc3ccccc3)cc12 | 3

target: T3, Amine oxidase [flavin-containing] A (Rattus norvegicus, UniProt P21396); assay: Inhibition of rat MAO-A; conditions: not given
T3 sequence (P21396 whole entry): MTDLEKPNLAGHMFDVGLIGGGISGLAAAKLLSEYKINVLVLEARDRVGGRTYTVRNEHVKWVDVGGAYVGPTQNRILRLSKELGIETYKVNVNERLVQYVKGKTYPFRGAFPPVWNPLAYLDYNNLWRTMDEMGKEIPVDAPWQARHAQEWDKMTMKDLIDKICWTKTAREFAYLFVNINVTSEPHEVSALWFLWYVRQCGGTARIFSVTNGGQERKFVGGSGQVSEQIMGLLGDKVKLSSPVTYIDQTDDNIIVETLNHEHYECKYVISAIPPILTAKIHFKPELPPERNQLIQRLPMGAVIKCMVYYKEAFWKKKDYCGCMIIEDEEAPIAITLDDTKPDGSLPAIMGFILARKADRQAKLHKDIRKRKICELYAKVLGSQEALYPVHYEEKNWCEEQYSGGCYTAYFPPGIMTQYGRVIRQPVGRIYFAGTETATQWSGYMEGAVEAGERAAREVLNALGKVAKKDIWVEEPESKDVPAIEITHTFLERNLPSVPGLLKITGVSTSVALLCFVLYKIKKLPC

Structure (SMILES) | IC50 [µM]
O=C1C[C@@H](c2ccc(O)cc2)Oc2cc(O)cc(O)c21 [NARINGENIN] | 342

target: T2, Amine oxidase [flavin-containing] A; assay: Inhibition of human MAO-A using tyramine hydrochloride as substrate preincubated for 30 mins followed by substrate addition and measured for 1 hr by microplate reader method; conditions: not given

Structure (SMILES) | IC50 [µM]
COc1cc(O)cc(O[C@H]2O[C@@H](CO)[C@H](O)[C@H]2O)c1C(=O)c1cc(O)cc(O)c1 | 310
O=C(c1cc(O)cc(O)c1)c1c(O)cc(O)cc1O[C@H]1O[C@@H](CO)[C@H](O)[C@H]1O | 111
O=C(c1cc(O)cc(O)c1)c1c(O[C@@H]2OC[C@@H](O)[C@H](O)[C@H]2O)cc(O)cc1O[C@H]1O[C@@H](CO)[C@H](O)[C@H]1O | 726

target: T2, Amine oxidase [flavin-containing] A; assay: Inhibition of MAO-A (unknown origin) incubated for 60 mins by fluorometric spectrophotometry analysis; conditions: not given

Structure (SMILES) | IC50
O=c1c(O[C@@H]2O[C@H](CO)[C@@H](O)[C@H](O)[C@H]2O)c(-c2ccc(O)c(O)c2)oc2cc(O)cc(O)c12 [ISOQUERCETIN] | 19.1 µM
O=c1c(O)c(-c2ccc(O)c(O)c2)oc2cc(O)cc(O)c12 [QUERCETIN] | 11.6 µM and 10.9 µM
C[C@@H]1O[C@@H](OC[C@H]2O[C@@H](Oc3c(-c4ccc(O)c(O)c4)oc4cc(O)cc(O)c4c3=O)[C@H](O)[C@@H](O)[C@@H]2O)[C@H](O)[C@H](O)[C@H]1O [RUTIN] | 3.89 µM

target: T3, Amine oxidase [flavin-containing] A; assay: In vivo inhibition of MAO-A in Wistar rat with assessed as decrease in MAO activity in […] at 10 to 30 mg/kg, ip measured after 2 hrs; type: functional, organism-based; parameters: scale not given: the % may be the effect or the level left; conditions: dose 10-30 mg/kg

Structure (SMILES) | Activity [%]
C[C@]12CC[C@H](O)CC1=CC[C@@H]1[C@@H]2CC[C@]2(C)C(=O)CC[C@@H]12 [PRASTERONE] | -24
